Measured values taken from ChEMBL document CHEMBL6153024, “A novel life for antitumor combretastatins: Recent developments of hybrids, prodrugs, combination therapies, and antibody-drug conjugates” (Eur J Med Chem, 2025).

Tested on: HT-29
Assay: Anticancer activity against human HT-29 cells
Type: functional, cell-based
Details: pooled result: one value given for 4 cell lines, strains, targets or settings

COc1ccc(C2=C(c3cc(I)c(OC)c(I)c3)C(=O)OC2)cc1
IC50: 258 nM
